# Source: patent publication US10167283B2, “β-lactamase inhibitors and uses thereof” (priority 2015, dated 2019)
# Counter-ions that a name gives are not always drawn. Like-named read-outs stand apart in the source and are kept apart here.
# What was measured:
# [1] = test system: Escherichia coli BAA-2523 (OXA-48); assay: In vitro antibacterial activity, agar dilution MIC; assay type: cell-based
# Description: (§1) Experimental strains: all experimental standard bacterial strains for enzyme production were purchased from ATCC, and the clinically separated CRE strain was purchased from Southwest Hospital of the Third Military Medical University.
# (§2) Experimental Method: Agar dilution method, referring to M100-S23: Performance Standards for Antimicrobial Susceptibility Testing: Twenty-Third Informational Supplement (Clinical And Laboratory Standards Institute, 2013). Minimal inhibitory concentration (MIC, μg/mL) was calculated.
# [2] = test system: Escherichia coli BAA-196 (TEM-10); assay: In vitro antibacterial activity, agar dilution MIC; assay type: cell-based
# Description: as §1, §2
# [3] = test system: Enterobacter cloacae BAA-2341 (KPC); assay: In vitro antibacterial activity, agar dilution MIC; assay type: cell-based; conditions: Enterobacter cloacae, BAA2341
# Description: as §1, §2
# [4] = test system: Enterobacter hormaechei BAA-2082 (KPC); assay: In vitro antibacterial activity, agar dilution MIC; assay type: cell-based; conditions: Enterobacter hormaechei, BAA2082
# Description: as §1, §2
# [5] = test system: Escherichia coli BAA-2452 (NDM-1); assay: In vitro antibacterial activity, agar dilution MIC; assay type: cell-based
# Description: as §1, §2
# [6] = test system: Klebsiella pneumoniae BAA-2524 (OXA-48); assay: In vitro antibacterial activity, agar dilution MIC; assay type: cell-based; conditions: Klebsiella pneumoniae, BAA2524
# Description: as §1, §2
# [7] = test system: Klebsiella pneumoniae BAA-1900 (KPC); assay: In vitro antibacterial activity, agar dilution MIC; assay type: cell-based
# Description: as §1, §2
# [8] = test system: Klebsiella pneumoniae BAA-2146 (NDM-1); assay: In vitro antibacterial activity, agar dilution MIC; assay type: cell-based
# Description: as §1, §2
# [9] = test system: Klebsiella pneumoniae 7484kpn-631 (IMP, ESBLs); assay: In vitro antibacterial activity on clinically separated CRE strain, agar dilution MIC; assay type: cell-based; conditions: first Table 4, 7484kpn-631 Klebsiella pneumoniae
# Description: as §1, §2
# [10] = test system: Klebsiella pneumoniae 7463kpn-610 (ESBLs); assay: as above; assay type: cell-based; conditions: first Table 4, 7463kpn-610 Klebsiella pneumoniae
# Description: as §1, §2
# [11] = test system: Enterobacter cloacae 7513ecl-314 (AmpC); assay: as above; assay type: cell-based; conditions: first Table 4, 7513ecl-314 Enterobacter cloacae
# Description: as §1, §2
# [12] = biological target: T1, OXA-10 (Pseudomonas aeruginosa, UniProt P14489); assay: β-lactamase inhibition, Nitrocefin hydrolysis; assay type: biochemical; conditions: Experiment 3; enzyme 10 nM, Nitrocefin 0.1 mM; read-out: IC50 Type D OXA-10
# T1 construct: purchased
# T1 sequence (P14489 20-266, species assumed): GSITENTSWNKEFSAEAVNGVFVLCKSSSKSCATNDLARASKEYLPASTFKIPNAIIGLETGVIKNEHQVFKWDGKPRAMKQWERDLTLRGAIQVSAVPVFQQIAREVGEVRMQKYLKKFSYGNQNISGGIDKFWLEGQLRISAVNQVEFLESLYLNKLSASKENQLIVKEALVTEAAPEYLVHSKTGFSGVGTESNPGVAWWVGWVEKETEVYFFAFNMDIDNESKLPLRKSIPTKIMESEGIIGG
# Experimental: (§3) Nitrocefin, a kind of cephalosporin antibiotics, is sensitive to most of β-lactamases, and changes in color after being hydrolyzed. The hydrolysis rate of Nitrocefin was measured by real-time recording corresponding absorbance of reaction system. β-Lactamase inhibitors could inhibit hydrolysis of the enzymes to Nitrocefin, and reduce hydrolysis rate. By measuring reaction rates in the same reaction system under different inhibitor concentrations, the IC50 (half maximal inhibitory concentration) values of inhibitors were calculated.
# (§4) Nitrocefin was dissolved in DMSO to form a solution with concentration of 2 mM, which was sub-packaged and stored at −20° C. The concentration of purchased β-lactamases mother liquor was 1 mg/mL, and the mother liquor was dissolved in 50% glycerol. A part of mother liquor was taken and diluted by 1000 times in reaction solution, sub-packaged and stored at ˜20° C.
# (§5) The compounds to be tested were dissolved in DMSO to form a mother liquor with concentration of 10 mM. If not used that day, the mother liquor was stored at −20° C. Its test final concentrations were: 100 μM, 25 μM, 6.25 μM, 1.563 μM, 390.6 nM, 97.66 nM, 24.41 nM, 6.10 nM, 1.53 nM, 0.381 nM, 0.095 nM.
# [13] = Pharmacokinetics in SD rats (iv); assay type: in vivo, SD rat; conditions: male, plasma; for half-life / clearance: SD, rat, iv, 1 mg/kg; for clearance: read-out: Cl—obs (converted); for Vd / AUC(0-t): SD rat, iv 1 mg/kg; for Vd: apparent volume of distribution, read-out: Vss—obs; for AUC(0-t): area under the curve 0→t
# Experimental: Experimental Example 1: Pharmacokinetics Experiments of the Compound of the Present Invention in Rats Test animals: 3 male SD rats, bodyweight 200-250 g for each animal. Test samples were administrated via intravenous push (iv), dosage of administration was 1 mg/kg, volume of administration was 2 mL/kg. Collecting time points: iv: after administration 0.083 […]. At each time point, about 100 μL of whole blood was sampled via caudal vein, added to K2EDTA anti-coagulative tube, centrifuged in a refrigerated centrifuge under 8000 rpm for 6 min to separate plasma, and the plasma was stored in -80° C. refrigerator. Plasma (20 μL) was taken and placed in a 96-well deep-well plate, and internal standard solution (300 μL) was added, subjected to vortex for 5 min, then centrifuged under 12000 rpm for 5 min, and then supernatant (200 μL) was taken and subjected to vortex for 3 min; to be analyzed by LC-MS/MS. Plasma (30 μL) was taken and placed in 1.5 mL EP tube, and internal standard solution (300 μL) was added, subjected to vortex for 5 min, then centrifuged under 12000 rpm for 5 min, and then supernatant (200 μL) was taken and subjected to vortex for 3 min; to be analyzed by LC-MS/MS. Plasma (30 μL) was taken and placed in a 96-well deep-well plate, and internal standard solution (200 μL) was added, subjected to vortex for 5 min, then centrifuged under 4000 rpm for 20 min, and then supernatant (100 μL) was taken and water (100 μL) was added, and subjected to vortex homogeneously; to be analyzed by LC-MS/MS.
# [14] = test system: Klebsiella oxytoca ATCC-51983 (SHV-5); assay: In vitro antibacterial activity, agar dilution MIC; assay type: cell-based; conditions: Klebsiella oxytoca, ATCC51983
# Description: as §1, §2
# [15] = biological target: T2, TEM-1 (Escherichia coli, UniProt P62593); assay: β-lactamase inhibition, Nitrocefin hydrolysis; assay type: biochemical; conditions: Experiment 1; enzyme 0.25 nM, Nitrocefin 0.1 mM; read-out: IC50 ESBLs type TEM-1
# T2 construct: purchased
# T2 sequence (P62593 24-286 limits assumed): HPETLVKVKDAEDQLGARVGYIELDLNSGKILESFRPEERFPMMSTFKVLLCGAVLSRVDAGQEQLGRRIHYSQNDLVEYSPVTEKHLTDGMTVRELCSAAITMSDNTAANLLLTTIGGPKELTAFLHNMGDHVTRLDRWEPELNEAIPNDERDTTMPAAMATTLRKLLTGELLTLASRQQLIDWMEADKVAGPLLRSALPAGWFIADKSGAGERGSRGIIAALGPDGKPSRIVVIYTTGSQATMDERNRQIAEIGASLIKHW
# Experimental: as §3, §4, §5
# [16] = biological target: T3, KPC-2 (Klebsiella pneumoniae, UniProt Q9F663); assay: β-lactamase inhibition, Nitrocefin hydrolysis; assay type: biochemical
# T3 construct: purchased
# T3 sequence (Q9F663 25-293, looked up, species assumed): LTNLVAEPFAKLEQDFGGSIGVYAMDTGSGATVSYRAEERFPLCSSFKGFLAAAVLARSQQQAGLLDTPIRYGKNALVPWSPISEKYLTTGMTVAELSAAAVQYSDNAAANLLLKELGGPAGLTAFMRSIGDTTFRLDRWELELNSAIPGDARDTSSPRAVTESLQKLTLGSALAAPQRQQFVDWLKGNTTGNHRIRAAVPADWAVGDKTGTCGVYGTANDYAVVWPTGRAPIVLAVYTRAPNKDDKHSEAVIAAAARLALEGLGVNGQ
# Experimental: as §3, §4, §5
# [17] = biological target: T4, AmpC (UniProt P05364); assay: β-lactamase inhibition, Nitrocefin hydrolysis; assay type: biochemical; conditions: read-out: IC50 Type C AmpC; Experiment 1; enzyme 0.4 nM, Nitrocefin 0.1 mM
# T4 construct: The concentration of purchased β-lactamases mother liquor was 1 mg/mL, and the mother liquor was dissolved in 50% glycerol
# Experimental: as §3, §4, §5
# [18] = BAA2523, first Table 4, BAA-2523 Escherichia coli, OXA-48, read-out: MIC
# [19] = BAA196, first Table 4, BAA-196 Escherichia coli, TEM-10, read-out: MIC
# [20] = BAA2452, first Table 4, BAA-2452 Escherichia coli, NDM-1, read-out: MIC
# [21] = BAA2146, first Table 4, BAA-2146 Klebsiella pneumoniae, NDM-1, read-out: MIC
# [22] = BAA1900, first Table 4, BAA-1900 Klebsiella pneumoniae, KPC, read-out: MIC
# [23] = Experiment 1, Nitrocefin 0.1 mM, read-out: IC50 Type A KPC-2
SMILES,MIC ([1]; BAA2523) [µg/mL],MIC ([2]; BAA196) [µg/mL],MIC [4] [µg/mL],MIC ([5]; BAA2452) [µg/mL],MIC [6] [µg/mL],MIC ([7]; BAA1900) [µg/mL],half-life [13] [h],clearance [13] [mL/min/kg],Vd [13] [L/kg],AUC(0-t) [13] [ng·h/mL],IC50 [15] [nM],other results
"CCN1CC2(CC(NC(=O)[C@@H]3CC[C@@H]4CN3C(=O)N4OS(=O)(=O)O)C2)C1 [Comp. 7 sodium salt, sodium (2S,5R)-2-((2-ethyl-2-azaspiro[3.3]heptan-6-yl)carbamoyl)-7-oxo-1,6-diazabicyclo[3.2.1]octan-6-yl sulfate]",4,8,8,4,8,8,–,–,–,–,–,MIC [3]: 8 µg/mL
"O=C(NC1CC2(CNC2)C1)[C@H]1CC[C@@H]2CN1C(=O)N2OS(=O)(=O)O [Compound 2-2, (2R,5R)-2-((2-azaspiro[3.3]heptan-6-yl)carbamoyl)-7-oxo-1,6-diazabicyclo[3.2.1]octan-6-yl hydrogen sulfate]",–,–,–,–,–,–,–,–,–,–,–,"MIC [1, 18]: 4 µg/mL; MIC [2, 19]: 4 µg/mL; MIC [5, 20]: 4 µg/mL; MIC [8, 21]: 2 µg/mL; MIC [7, 22]: 4 µg/mL; MIC [9]: 2 µg/mL; MIC [10]: 2 µg/mL; MIC [11]: 2 µg/mL"
"CN1CC2(CC(NC(=O)[C@H]3CC[C@@H]4CN3C(=O)N4OS(=O)(=O)O)C2)C1 [Compound 6-2, (2R,5R)-2-((2-methyl-2-azaspiro[3,3]heptan-6-yl)carbamoyl)-7-oxo-1,6-diazabicyclo[3,2,1]octan-6-yl hydrogen sulfate]",–,–,–,–,–,–,–,–,–,–,–,"MIC [1, 18]: 8 µg/mL; MIC [2, 19]: 8 µg/mL; MIC [5, 20]: 8 µg/mL; MIC [8, 21]: 16 µg/mL; MIC [7, 22]: 8 µg/mL; MIC [9]: 4 µg/mL; MIC [10]: 8 µg/mL; MIC [11]: 4 µg/mL"
"CN1CC2(CC(NC(=O)[C@@H]3CC[C@@H]4CN3C(=O)N4OS(=O)(=O)O)C2)C1 [Compound 6 sodium salt, sodium (2S,5R)-2-((2-methyl-2-azaspiro[3.3]heptan-6-yl)carbamoyl)-7-oxo-1,6-diazabicyclo[3.2.1]octan-6-yl sulfate]",–,–,–,–,–,–,0.25,9.08,0.219,1840,–,IC50 [12]: 21700 nM
"O=C(NC1CC2(C1)CN(C1CC1)C2)[C@@H]1CC[C@@H]2CN1C(=O)N2OS(=O)(=O)O [Compound 13, (2S,5R)-2-(2-cyclopropyl-2-azaspiro[3.3]heptan-6-ylcarbamoyl)-7-oxo-1,6-diazabicyclo[3.2.1]octan-6-yl hydrogen sulfate]",4,16,16,4,4,8,–,–,–,–,–,MIC [14]: 8 µg/mL
"O=C(NC1CC2CCC(C1)N2)[C@@H]1CC[C@@H]2CN1C(=O)N2OS(=O)(=O)O (stereo partly drawn) [Compound 4, (2S,5R)-2-((8-azabicyclo[3.2.1]octane-3-yl)carbamoyl)-7-oxo-1,6-diazabicyclo[3.2.1]octan-6-yl hydrogen sulfate]",–,–,–,–,–,–,2.04,12.1,0.348,1390,20.5,IC50 [16]: 23.1 nM
"O=C(NC1CC2(C1)CN(CC1CC1)C2)[C@@H]1CC[C@@H]2CN1C(=O)N2OS(=O)(=O)O [Compound 14, sodium (2S,5R)-2-((2-(cyclopropylmethyl)-2-azaspiro[3.3]heptan-6-yl)carbamoyl)-7-oxo-1,6-diazabicyclo[3.2.1]octan-6-yl sulfate]",2,8,8,2,4,4,–,–,–,–,–,MIC [14]: 8 µg/mL; MIC [3]: 8 µg/mL; MIC ([8]; BAA2146): 8 µg/mL
"O=C(NC1CC2(CCNCC2)C1)[C@@H]1CC[C@@H]2CN1C(=O)N2OS(=O)(=O)O [Compound 1, (2S,5R)-2-(7-azaspiro[3.5]nonan-2-ylcarbamoyl)-7-oxo-1,6-diazabicyclo[3.2.1]octan-6-yl hydrogen sulfate]",–,–,–,–,–,–,1.01,7.77,0.294,2330,28.2,"IC50 [16, 23]: 81.7 nM; IC50 [17]: 22.9 nM"
"O=C(NC1C2CCC1CNC2)[C@@H]1CC[C@@H]2CN1C(=O)N2OS(=O)(=O)O (stereo partly drawn) [Compound 5, (2S,5R)-2-((3-azabicyclo[3.2.1]octan-8-yl)carbamoyl)-7-oxo-1,6-diazabicyclo[3.2.1]octan-6-yl hydrogen sulfate]",–,–,–,–,–,–,–,–,–,–,66.5,"IC50 [16, 23]: 27.4 nM; IC50 [17]: 84.1 nM"
